From paper PMC11281344 (Viruses, 2024)
Like-named read-outs stand apart in the source and are kept apart here.

Assays:
in vitro = details: hamster
[1] = test system: FMDV serotype A [A/TAI/NP05/2017 (NP05)]; assay: microbe, parasite or virus in culture; assay type: cell-based, Foot-and-mouth disease virus; details: for EC50: read-out: Antiviral Activity (EC50) CPE (Crystal Violet)
[2] = test system: FMDV serotype A [A/TAI/NP05/2017 (NP05)]; assay: microbe, parasite or virus in culture; assay type: cell-based, Foot-and-mouth disease virus
[3] = test system: FMDV serotype A [A/TAI/NP05/2017 (NP05)]; assay: microbe, parasite or virus in culture; assay type: cell-based, Foot-and-mouth disease virus; details: for EC50: read-out: Antiviral Activity (EC50) Viral Copy Number (RT-qPCR)
FMDV 3D^pol = FMDV 3D^pol (Foot-and-mouth disease virus serotype O, UniProt P03305); assay: cell-based; assay type: cell-based
ZIKV = details: read-out: IC50 against ZIKV; cited from earlier work
[4] = Foot-and-mouth disease virus, BHK-21, 24 h
[5] = Foot-and-mouth disease virus, BHK-21, read-out: Antiviral Activity (EC50) FMDV-Infected Cells (IPMA)

Chain of FMDV 3D^pol (P03305 1863-2332 limits assumed): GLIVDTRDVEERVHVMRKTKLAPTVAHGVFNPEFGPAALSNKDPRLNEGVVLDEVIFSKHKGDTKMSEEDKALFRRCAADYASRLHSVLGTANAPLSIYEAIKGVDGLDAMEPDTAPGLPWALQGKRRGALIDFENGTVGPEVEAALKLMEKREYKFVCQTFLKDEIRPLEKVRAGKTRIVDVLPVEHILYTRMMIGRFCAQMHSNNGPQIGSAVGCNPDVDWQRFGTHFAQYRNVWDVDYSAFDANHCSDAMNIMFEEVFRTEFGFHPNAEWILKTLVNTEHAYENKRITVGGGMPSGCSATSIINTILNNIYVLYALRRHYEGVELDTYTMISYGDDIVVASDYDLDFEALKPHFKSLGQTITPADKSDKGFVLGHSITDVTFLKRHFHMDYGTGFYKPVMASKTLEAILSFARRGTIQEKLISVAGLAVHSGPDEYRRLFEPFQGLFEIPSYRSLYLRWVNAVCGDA

For `CC1(C)O[C@H]2CC(=O)OC[C@]23[C@H]2CC[C@@]4(C)[C@H](c5ccoc5)OC(=O)[C@H]5O[C@]54[C@]2(C)[C@@H](O)C(=O)[C@@H]13` [Rutaevin], the CC50 (in vitro) was 472 ± 2.67 µM.

In the case of `C=C1[C@H](OC(=O)c2ccccc2)C[C@H]2[C@@H](/C=C(\C)C(=O)[C@@]3(OC(C)=O)C[C@H](C)[C@H](OC(=O)c4ccccc4)[C@@H]3[C@H]1OC(C)=O)C2(C)C` [Euphorbia factor L2], the CC50 (BHK-21 cells) is reported as 114 ± 2.06 µM.

In the case of `CC1(C)O[C@H]2CC(=O)OC[C@]23[C@H]2CC[C@@]4(C)[C@H](c5ccoc5)OC(=O)[C@H]5O[C@]54[C@]2(C)C(=O)C[C@@H]13` [Limonin], the CC50 (in vitro) is reported as 116 ± 2.07 µM.

In the case of `CC(=O)O[C@@]12CO[C@@H]1C[C@H](O)[C@@]1(C)C(=O)[C@H](O)C3=C(C)[C@@H](O)C[C@@](O)([C@@H](OC(=O)c4ccccc4)[C@H]21)C3(C)C` [10-Deacetylbaccatin III], the CC50 (BHK-21 cells) is reported as over 500 µM.

Molecule `C=C[C@@]1(C)CC(=O)[C@]2(O)[C@@]3(C)[C@@H](O)CCC(C)(C)[C@@H]3[C@H](O)[C@H](OC(C)=O)[C@@]2(C)O1` [Forskolin] has a CC50 (in vitro) of 75.9 ± 1.88 µM.

In the case of `C=CC1(C)C=C2CCC3C(C)(C(=O)O)CCCC3(C)C2CC1` (centres unmarked) [Continentalic acid], the “Antiviral activity against FMDV infection (result in words)” value (“Antiviral activity” below) [1] is reported as “exhibited antiviral activities”, the EC50 [1, 4] is reported as 43.4 ± 1.64 µM and the EC50 [2, 5] is reported as 35 ± 1.54 µM. For the same molecule, the “Inhibition of viral load (result in words)” value [3] was “moderate inhibition”, the EC50 [3, 4] was 68.3 ± 1.83 µM and the IC50 (FMDV 3D^pol) was 36.9 ± 1.57 µM. For the same molecule, the “Inhibition of FMDV 3Dpol (result in words)” value (FMDV 3D^pol) was “moderate inhibition” and the CC50 (in vitro) was 88.7 ± 1.82 µM.

For `CC1=C[C@H](O)[C@@H](O)[C@]2(C)[C@H]3[C@@H](O)[C@H](O)[C@@]4(C)OC[C@@]35[C@@H](C[C@@H]12)OC(=O)[C@H](O)[C@]54O` [Bruceine E], the “Antiviral activity” value [1] was “exhibited antiviral activities”, the EC50 [1, 4] was 18.1 ± 1.26 µM and the EC50 [2, 5] was 12.9 ± 1.11 µM. The “Inhibition of viral load (result in words)” value [3] was “moderate potency”, the EC50 [3, 4] was 33.4 ± 1.52 µM and the IC50 (FMDV 3D^pol) was 26.7 ± 1.43 µM. For the same molecule, the “Inhibition of FMDV 3Dpol (result in words)” value (FMDV 3D^pol) was “moderate inhibition” and the CC50 (in vitro) was 49.6 ± 1.7 µM.

In the case of `C[C@@H]1C[C@@H]([C@@H](O)C(C)(C)O)O[C@H]2C[C@@]3(C)C(=C12)C[C@H](O)[C@H]1[C@@]2(C)CCC(=O)C(C)(C)[C@@H]2CC[C@@]13C` [Alisol F], the CC50 (BHK-21 cells) is reported as 85.2 ± 1.93 µM.

In the case of `CC1=CC(=O)[C@@H](O)[C@]2(C)[C@H]3[C@@H](O)[C@H](O)[C@@]4(C)OC[C@@]35[C@@H](C[C@@H]12)OC(=O)[C@H](O)[C@]54O` [Bruceine D], the “Antiviral activity” value [1] is reported as “exhibited antiviral activities”, the EC50 [1] is reported as 0.25 ± 0.6 µM and the EC50 ([2]; read-out: Antiviral Activity (EC50) FMDV-Infected Cells (IPMA)) is reported as 0.32 ± 0.49 µM. The “Concentration range of complete inhibition of FMDV” value [3] was 1 to 2.5 µM, the EC50 [3] was 0.42 ± 0.38 µM and the IC50 (ZIKV) was 0.36 µM.

Molecule `CC(C)=CCC[C@](C)(O)[C@H]1CC[C@]2(C)[C@@H]1[C@H](O)C[C@@H]1[C@@]3(C)CC[C@H](O[C@@H]4O[C@H](CO)[C@@H](O)[C@H](O)[C@H]4O[C@@H]4O[C@H](CO)[C@@H](O)[C@H](O)[C@H]4O)C(C)(C)[C@@H]3CC[C@]12C` [Ginsenoside Rg3] has a CC50 (BHK-21 cells) of 269.9 ± 2.43 µM.

In the case of `C[C@H]1O[C@@H](O[C@H]2CC[C@@]3(C)[C@@H](CC[C@]4(C)[C@@H]3C=CC3=C5CC(C)(C)CC[C@]5(CO)[C@H](O)C[C@]34C)[C@]2(C)CO)[C@H](O)[C@@H](O[C@@H]2O[C@H](CO)[C@@H](O)[C@H](O)[C@H]2O)[C@H]1O` [Saikosaponin B2], the CC50 (BHK-21 cells) is reported as over 500 µM.

For `CC1(C)CCC2(C(=O)O)CCC3(CO)C(=CCC4C5(C)CC(O)C(OC6OC(CO)C(O)C(O)C6O)C(C)(C(=O)O)C5CCC43C)C2C1` (centres unmarked) [Tenuifolin], the CC50 (in vitro) was 54.9 ± 1.74 µM.

Work on `CC(C)[C@]12O[C@H]1[C@@H]1O[C@]13[C@]1(O[C@H]1C[C@H]1C4=C(CC[C@@]13C)C(=O)OC4)[C@@H]2O` [Triptolide] yielded a CC50 (in vitro) of 122 ± 2.09 µM.

Work on `C[C@H](CC(=O)C[C@@H](C)[C@H]1C[C@H](O)[C@@]2(C)C3=C(C(=O)C[C@]12C)[C@@]1(C)CCC(=O)C(C)(C)[C@@H]1C[C@@H]3O)C(=O)O` [Ganoderic acid A] yielded a CC50 (in vitro) of over 500 µM.

Work on `CC(=O)O[C@H]1[C@H]2[C@@H](OC(=O)Cc3ccccc3)[C@@H](C)C[C@]2(OC(C)=O)C(=O)/C(C)=C/[C@@H]2[C@H](CC[C@@]13CO3)C2(C)C` [Euphorbiasteroid] yielded a CC50 (BHK-21 cells) of over 500 µM.

`CC(C)=CCC[C@](C)(O)[C@H]1CC[C@]2(C)[C@@H]1[C@H](O)C[C@@H]1[C@@]3(C)CC[C@H](O)C(C)(C)[C@@H]3[C@@H](O[C@@H]3O[C@H](CO)[C@@H](O)[C@H](O)[C@H]3O)C[C@]12C` [Ginsenoside Rh1] showed a CC50 (in vitro) of 174 ± 2.24 µM.
